Numbers after ± are expanded uncertainties.
Assays:
[1] = refractive index (Na D-line) (dimensionless); conditions: 298.15 K; 101.33 kPa; Liquid; Standard Abbe refractometry
[2] = 298.15 K; 101.33 kPa; Liquid
[3] = refractive index (Na D-line) (dimensionless); xn = mol fraction of the nth substance listed; conditions: 298.15 K, 101.3 kPa, Liquid, Standard Abbe refractometry
[4] = excess molar enthalpy (molar enthalpy of mixing); xn = mol fraction of the nth substance listed; conditions: 298.15 K, 101 kPa, Liquid
[5] = xn = mol fraction of the nth substance listed; conditions: 298.15 K, Liquid

CCCCCC [hexane]
Conditions | mass density [kg/m3] | refractive index
[1] | – | 1.3723 ± 0.0004
[2] | 654.68 ± 0.7 | –

CCCCCC [hexane] + Cc1ccccc1
Conditions | excess molar enthalpy [kcal/mol] | refractive index
[3], x1 = 0.0543 | – | 1.486 ± 0.0007
[3], x1 = 0.0958 | – | 1.4801 ± 0.0007
[3], x1 = 0.1667 | – | 1.4701 ± 0.0007
[3], x1 = 0.2129 | – | 1.4637 ± 0.0007
[3], x1 = 0.2818 | – | 1.4541 ± 0.0007
[3], x1 = 0.3261 | – | 1.4482 ± 0.0007
[3], x1 = 0.3762 | – | 1.4417 ± 0.0007
[3], x1 = 0.4262 | – | 1.4353 ± 0.0007
[3], x1 = 0.4769 | – | 1.429 ± 0.0007
[3], x1 = 0.5136 | – | 1.4246 ± 0.0007
[3], x1 = 0.5742 | – | 1.4174 ± 0.0007
[3], x1 = 0.6327 | – | 1.4107 ± 0.0007
[3], x1 = 0.6862 | – | 1.4047 ± 0.0007
[3], x1 = 0.7402 | – | 1.3987 ± 0.0007
[3], x1 = 0.7958 | – | 1.3927 ± 0.0007
[3], x1 = 0.8548 | – | 1.3866 ± 0.0007
[3], x1 = 0.9106 | – | 1.381 ± 0.0007
[3], x1 = 0.9409 | – | 1.378 ± 0.0007
[4], x1 = 0.0525 | 0.0294 ± 0.000956 | –
[4], x1 = 0.0957 | 0.0507 ± 0.00146 | –
[4], x1 = 0.1586 | 0.0756 ± 0.00206 | –
[4], x1 = 0.2119 | 0.0935 ± 0.00263 | –
[4], x1 = 0.2672 | 0.109 ± 0.00287 | –
[4], x1 = 0.3135 | 0.118 ± 0.00311 | –
[4], x1 = 0.3766 | 0.126 ± 0.00335 | –
[4], x1 = 0.4264 | 0.13 ± 0.00335 | –
[4], x1 = 0.4723 | 0.131 ± 0.00335 | –
[4], x1 = 0.5414 | 0.128 ± 0.00335 | –
[4], x1 = 0.6641 | 0.115 ± 0.00311 | –
[4], x1 = 0.6927 | 0.109 ± 0.00287 | –
[4], x1 = 0.7484 | 0.0939 ± 0.00263 | –
[4], x1 = 0.8045 | 0.0779 ± 0.00213 | –
[4], x1 = 0.8657 | 0.0576 ± 0.00163 | –
[4], x1 = 0.9023 | 0.0438 ± 0.00129 | –

[5], 101 kPa
Conditions | mass density [kg/m3]
x1 = 0.0524 | 848.99 ± 0.37
x1 = 0.0926 | 839.12 ± 0.39
x1 = 0.1636 | 822.1 ± 0.41
x1 = 0.2011 | 813.3 ± 0.43
x1 = 0.2475 | 802.64 ± 0.45
x1 = 0.3184 | 786.7 ± 0.48
x1 = 0.4088 | 767.06 ± 0.51
x1 = 0.4739 | 753.36 ± 0.53
x1 = 0.5096 | 746 ± 0.55
x1 = 0.5734 | 733.08 ± 0.56
x1 = 0.6086 | 726.13 ± 0.57
x1 = 0.6754 | 713.16 ± 0.59
x1 = 0.7338 | 702.09 ± 0.61
x1 = 0.7827 | 693.01 ± 0.62
x1 = 0.8426 | 682.13 ± 0.64
x1 = 0.9055 | 670.97 ± 0.66
x1 = 0.9323 | 666.29 ± 0.67

CCCOC(=O)CC [propyl propanoate]
Conditions | mass density [kg/m3] | refractive index
[1] | – | 1.3906 ± 0.0004
[2] | 875.48 ± 0.64 | –

CCCOC(=O)CC [propyl propanoate] + Cc1ccccc1
Conditions | excess molar enthalpy [kcal/mol] | refractive index
[3], x1 = 0.0625 | – | 1.4858 ± 0.0007
[3], x1 = 0.1072 | – | 1.4803 ± 0.0007
[3], x1 = 0.1826 | – | 1.4712 ± 0.0007
[3], x1 = 0.2232 | – | 1.4665 ± 0.0007
[3], x1 = 0.2747 | – | 1.4605 ± 0.0007
[3], x1 = 0.3426 | – | 1.4529 ± 0.0007
[3], x1 = 0.4514 | – | 1.4411 ± 0.0007
[3], x1 = 0.4907 | – | 1.437 ± 0.0007
[3], x1 = 0.5441 | – | 1.4316 ± 0.0007
[3], x1 = 0.5833 | – | 1.4277 ± 0.0007
[3], x1 = 0.6451 | – | 1.4218 ± 0.0007
[3], x1 = 0.7066 | – | 1.416 ± 0.0007
[3], x1 = 0.7346 | – | 1.4135 ± 0.0007
[3], x1 = 0.7898 | – | 1.4085 ± 0.0007
[3], x1 = 0.8508 | – | 1.4031 ± 0.0007
[3], x1 = 0.9037 | – | 1.3986 ± 0.0007
[3], x1 = 0.956 | – | 1.3942 ± 0.0007
[4], x1 = 0.0547 | -0.0102 ± 0.00105 | –
[4], x1 = 0.1357 | -0.0223 ± 0.00143 | –
[4], x1 = 0.1718 | -0.0263 ± 0.00155 | –
[4], x1 = 0.2389 | -0.0336 ± 0.00177 | –
[4], x1 = 0.2823 | -0.0365 ± 0.00186 | –
[4], x1 = 0.3263 | -0.0399 ± 0.00198 | –
[4], x1 = 0.3957 | -0.0421 ± 0.00206 | –
[4], x1 = 0.4277 | -0.0421 ± 0.00206 | –
[4], x1 = 0.5486 | -0.0378 ± 0.00191 | –
[4], x1 = 0.5841 | -0.0361 ± 0.00186 | –
[4], x1 = 0.6522 | -0.0328 ± 0.00177 | –
[4], x1 = 0.709 | -0.0293 ± 0.00165 | –
[4], x1 = 0.7394 | -0.0271 ± 0.00158 | –
[4], x1 = 0.8031 | -0.0228 ± 0.00146 | –
[4], x1 = 0.8568 | -0.0183 ± 0.00131 | –
[4], x1 = 0.892 | -0.0131 ± 0.00115 | –
[4], x1 = 0.9577 | -0.00583 ± 0.000932 | –

[5], 101.3 kPa
Conditions | mass density [kg/m3]
x1 = 0.0625 | 863.5 ± 0.35
x1 = 0.1072 | 864.46 ± 0.35
x1 = 0.1826 | 865.94 ± 0.35
x1 = 0.2232 | 866.69 ± 0.36
x1 = 0.2747 | 867.57 ± 0.36
x1 = 0.3426 | 868.66 ± 0.37
x1 = 0.4514 | 870.21 ± 0.38
x1 = 0.4907 | 870.73 ± 0.38
x1 = 0.5441 | 871.41 ± 0.39
x1 = 0.5833 | 871.86 ± 0.39
x1 = 0.6451 | 872.53 ± 0.4
x1 = 0.7066 | 873.14 ± 0.41
x1 = 0.7346 | 873.41 ± 0.42
x1 = 0.7898 | 873.9 ± 0.43
x1 = 0.8508 | 874.42 ± 0.44
x1 = 0.9037 | 874.81 ± 0.45
x1 = 0.956 | 875.2 ± 0.46

Cc1ccccc1 [toluene]
Conditions | mass density [kg/m3] | refractive index
[1] | – | 1.4941 ± 0.0004
[2] | 862.11 ± 0.18 | –

Source: the NIST ThermoML archive (doi:10.1016/j.jct.2006.08.011)
